From patent publication US20260347325A1, “DIPHENYLPYRAZOLE COMPOUNDS AND THEIR USE” (INSTITUT NATIONAL DE LA SANTÉ ET DE LA RECHERCHE MÉDICALE, priority 2022, published 2026)

Key:
αCTF [1] = settings: 20-fold increase vs untreated; prior art reference compounds, footnotes e, f cite literature; cited from earlier work
AICD [2] = settings: 20-fold increase vs untreated; prior art reference compounds, footnotes e, f cite literature; cited from earlier work
SY5Y-APP695WT cells = settings: 72 h; prior art reference compounds, footnotes e, f cite literature; read-out: Cytotoxicity CC50; cited from earlier work
Aβ = settings: in words; cited from earlier work
APP-CTFs and AICD = settings: in words; cited from earlier work
[3] = tested on: γ-secretase cleavage of Notch; settings: in words; cited from earlier work
Aβ1-40 = Aβ1-40 secretion in SY5Y-APPwt cells (ELISA of conditioned media); format: cell-based; settings: Homo sapiens, 24 h, inhibiting 50% of Aβ1-40 secretion, mean ± SD of at least two experiments in triplicate
Procedure: (§1) 2. Cell Culture and Treatments
(§2) The human neuroblastoma cell line SY5Y-APP^695WT was maintained in Dulbecco's modified Eagle medium (DMEM, high glucose, pyruvate—GIBCO, Life Technologies) supplemented with 10% fetal bovine serum, 2 mM L-glutamine, 1 mM non-essential amino acids and penicillin/streptomycin (GIBCO, Life Technologies) at 37°C in a 5% CO2 humidified incubator [36]. For compound treatment, a 10 mM stock solution was diluted in freshly supplemented DMEM medium to obtain the precise final concentration of the drug. Cells were plated at a density of 5.10^5 cells per well into 12-well plates and cultured with 1 mL supplemented DMEM cell medium for 24 h before compound exposure. The following day, the cell medium was replaced with fresh medium containing the compounds diluted at the indicated concentrations. Cells were treated for 24 h. At the end of treatments, the cell medium was collected and kept at −80°C until use, cells were rinsed once with PBS and extracted in 100 μL of Laemmli buffer (10 mM Tris, 20% glycerol, and 2% sodium dodecyl sulfate) using a cell-scraper. The cell lysate was further sonicated (30 pulses of 0.5 s, 60 Hz) for 5 min. Total protein concentration was determined using the Pierce BCA Protein Assay Kit (Thermo Scientific) according to the manufacturer's instructions. Samples were stored at −80°C until analysis.
(§3) 5. Quantification of Secreted Aβ and sAPP […]
(§4) Aβ1-40/Aβ1_42 peptides, Aβx-38/Aβx-40/Aβx-42 and sAPPα/sAPPβ concentrations in […] were determined, respectively, using amyloid-beta 40 and 42 Human ELISA kits (Invitrogen), V-PLEX Plus Aβ Peptide Panel 1 (4G8) Kit (Meso Scale Diagnostics, MSD R©) and sAPPα/sAPPβ multiplex kit (Meso Scale Diagnostics, MSD R©) according to the manufacturer's instructions.
(§5) Compounds of the invention (compounds 16-17, 24-35, 57-58 and 61-72) were evaluated for their ability to modulate APP processing on SYSY human neuroblastoma cell line stably expressing the neuronal isoform of human wild-type APP695 (SY5Y-APP^wt). APP carboxy-terminal fragments (αCTFs and AICD) levels were assessed by western blotting (WB). The effect of reference and test compounds on αCTFs and AICD is expressed as the intensity of corresponding WB bands. The concentration of compounds able to increase 20-times αCTFs and AICD (C20) when compared to the control condition was calculated. Selected compounds were also evaluated for their ability to modulate the secretion of soluble APP fragments (sAPPα and sAPPβ). Aβ1-x levels (Aβ1_40 and Aβ1-42) after treatment with reference and tested compounds were measured in the cell media by ELISA (Table 2). […] Selected hit compounds were then further evaluated for their ability to decrease the level of N-truncated Aβ peptides (Aβx-38, Aβx-40, and Aβx-42). […]

Aβ1-42 = Aβ1-42 secretion in SY5Y-APPwt cells (ELISA of conditioned media); format: cell-based; settings: Homo sapiens, 24 h, inhibiting 50% of Aβ1-42 secretion, mean ± SD of at least two experiments in triplicate
Procedure: as §1, §2, §3, §4, §5

αCTF [4] = experiment: αCTF level in SY5Y-APPwt cells by western blotting; format: cell-based; settings: Homo sapiens, 24 h; concentration to increase αCTF by 20-fold vs untreated; mean of at least three experiments, less than 10% deviation; read-out: αCTF (C20)
Procedure: as §2
(§6) Cell protein lysates were prepared for western-blot analysis by diluting the sample with 1 volume of NuPAGE® lithium dodecyl sulfate (LDS) 2× sample buffer supplemented with 20% NuPAGE® sample reducing agents (Invitrogen). Samples were heated for 10 min at 100°C Ten μg of total proteins per well were loaded onto precast 4-12% Criterion XT Bis-Tris polyacrylamide gels (Bio-Rad) and electrophoresis was achieved after applying a tension of 150 V during 90 min using a Criterion electrophoresis Cell with the NuPAGE® MOPS SDS running buffer (1×). Proteins were transferred to a nitrocellulose membrane of […] pore size (G&E Healthcare) using the Criterion blotting system and applying a tension of 100 V for 45 min. To resolve proteins of low molecular weights such as carboxy-terminal fragments of APP, 12% Criterion XT Bis-Tris polyacrylamide gels (Bio-Rad) were used and electrophoresis was performed during 70 min at 150 V in a NuPAGE® MES SDS running buffer (1×). […] Protein transfer and quality were determined by a reversible Ponceau Red coloration (0.2% xylidine Ponceau Red and 3% trichloroacetic acid). […] Quantifications of protein expression levels were performed with Image Quant TL (G&E Healthcare). […]
(§7) Compounds of the invention (compounds 16-17, 24-35, 57-58 and 61-72) were evaluated for their ability to modulate APP processing on SYSY human neuroblastoma cell line stably expressing the neuronal isoform of human wild-type APP695 (SY5Y-APP^wt). […]

AICD [5] = experiment: AICD level in SY5Y-APPwt cells by western blotting; format: cell-based; settings: Homo sapiens, 24 h; concentration to increase AICD by 20-fold vs untreated; mean of at least three experiments, less than 10% deviation; read-out: AICD (C20)
Procedure: as §2, §6, §7

Cytotoxicity MTS assay = format: cell-based; settings: human, sy5y-app695wt cells; 50% of cell death after 72 h treatment
Procedure: Cytotoxicity was measured using 3-(4,5-dimethylthiazol-2-yl)-5-(3-carboxymethoxyphenyl)-2-(4-sulfophenyl)-2H-tetrazolium (MTS) tests. SY5Y-APP^695WT cells were plated in a 96-wells plate at 3.10^4 cells per well and allowed to attach for 24 h. Cells were then incubated for 72 h with 100 μL of DMEM medium with 10% SVF containing (or not) the defined concentration of drugs. Cytotoxicity was determined by using the colorimetric MTS assay (Cell Titer 96® Aqueous One Solution Cell Proliferation Assay-MTS Promega) according to the manufacturer's instructions. Absorbance was read at 490 nm.

sAPPβ = sAPPβ secretion (sAPPα/sAPPβ multiplex kit); format: cell-based; settings: Homo sapiens; inhibiting 50% of sAPPβ secretion in SY5Y cells; mean ± SD of at least three experiments in triplicate
Procedure: (§8) The human neuroblastoma cell line SY5Y-APP^695WT was maintained in Dulbecco's modified Eagle medium (DMEM, high glucose, pyruvate—GIBCO, Life Technologies) supplemented with 10% fetal bovine serum, 2 mM L-glutamine, 1 mM non-essential amino acids and penicillin/streptomycin (GIBCO, Life Technologies) at 37°C in a 5% CO2 humidified incubator [36]. For compound treatment, a 10 mM stock solution was diluted in freshly supplemented DMEM medium to obtain the precise final concentration of the drug. Cells were plated at a density of 5.10^5 cells per well into 12-well plates and cultured with 1 mL supplemented DMEM cell medium for 24 h before compound exposure. […] Total protein concentration was determined using the Pierce BCA Protein Assay Kit (Thermo Scientific) according to the manufacturer's instructions. […]
(§9) Aβ1-40/Aβ1_42 peptides, Aβx-38/Aβx-40/Aβx-42 and sAPPα/sAPPβ concentrations in […] were determined, respectively, using amyloid-beta 40 and 42 Human ELISA kits (Invitrogen), V-PLEX Plus Aβ Peptide Panel 1 (4G8) Kit (Meso Scale Diagnostics, MSD R©) and sAPPα/sAPPβ multiplex kit (Meso Scale Diagnostics, MSD R©) according to the manufacturer's instructions. […]
(§10) The activity of compounds of the invention on sAPPα 6 and sAPPβ was further explored. The expression of sAPPβ and sAPPα, which are by-products of β- and α-secretase respectively, were quantified in media of treated cells.

sAPPα = sAPPα secretion (sAPPα/sAPPβ multiplex kit); format: cell-based, human; settings: for EC (1.5-fold): Homo sapiens, 24 h, concentration to increase sAPPα by 1.5-fold vs untreated, read-out: sAPPα C1.5; for secretion of sAPPα: in words
Procedure: as §2
Conditioned media of SYSY-APP^695WT collected at the end of treatments were centrifuged at 1000×g for 5 min to eliminate cell debris.
as §4
(§11) Compounds of the invention (compounds 16-17, 24-35, 57-58 and 61-72) were evaluated for their ability to modulate APP processing on SYSY human neuroblastoma cell line stably expressing the neuronal isoform of human wild-type APP695 (SY5Y-APP^wt). APP carboxy-terminal fragments (αCTFs and AICD) levels were assessed by western blotting (WB). The effect of reference and test compounds on αCTFs and AICD is expressed as the intensity of corresponding WB bands. The concentration of compounds able to increase 20-times αCTFs and AICD (C20) when compared to the control condition was calculated. Selected compounds were also evaluated for their ability to modulate the secretion of soluble APP fragments (sAPPα and sAPPβ). Aβ1-x levels (Aβ1_40 and Aβ1-42) after treatment with reference and tested compounds were measured in the cell media by ELISA (Table 2). […] Selected hit compounds were then further evaluated for their ability to decrease the level of N-truncated Aβ peptides (Aβx-38, Aβx-40, and Aβx-42). […] 2015, 6, 559-569; B1: compound 8 of M. Gay et al., Bioorg. Med. Chem. 2018, 26, 2151-2164.
as §10

Aβ1-x peptides = experiment: Aβ1-x (Aβ1-40 and Aβ1-42) secretion; format: cell-based, human; settings: in words
Procedure: as §8, with “exposure. The following day, the cell medium was replaced with fresh medium containing the compounds diluted at the indicated concentrations. Cells were treated for 24 h.” for “exposure.”
as §9

β-secretase = β-secretase cleavage of APP; format: cell-based, human; settings: in words
Procedure: as §11, §10

Compound | IC50 (Aβ1-40) [µM] | IC50 (Aβ1-42) [µM] | EC (20-fold increase) (αCTF [4]) [µM] | EC (20-fold increase) (AICD [5]) [µM] | CC50 at 72 h (Cytotoxicity MTS assay) [µM] | EC (1.5-fold) (sAPPα) [µM] | further results
CCN(CC)CCCC(C)Nc1ccnc2cc(Cl)ccc12 (stereo not drawn) [CQ, chloroquine] | – | – | – | – | – | – | αCTF (C20) (αCTF [1]): >>10 μM; AICD (C20) (AICD [2]): >>10 μM; CC50 (SY5Y-APP695WT cells): 30 µM; Aβ production (Aβ): inhibit Aβ production; levels of other APP metabolites such as APP-CTFs and AICD (APP-CTFs and AICD): maintained and even increased; γ-secretase cleavage of Notch [3]: remains unmodified
CN(C)CCCc1ccc(-c2nn(-c3ccc(CN(C)CCCN(C)C)cc3)cc2CN(C)C)cc1 [Compound 32, N′-[[4-[4-(dimethylaminomethyl)-3-[4-[3-(dimethylamino)propyl]phenyl]-1H-pyrazol-1-yl]phenyl]methyl]-N,N,N′-trimethyl-propane-1,3-diamine] | 4.2 ± 0.1 | 6.1 ± 0.3 | 1.1 | 1.8 | > 100 | – | –
CN(C)CCCc1ccc(-c2nn(-c3ccc(CN(C)CCCN(C)C)cc3)cc2CCCN(C)C)cc1 [Compound 33, N′-[[4-[4-[3-(dimethylamino)propyl]-3-[4-[3-(dimethylamino)propyl]phenyl]-1H-pyrazol-1-yl]phenyl]methyl]-N,N,N′-trimethyl-propane-1,3-diamine] | 9.2 ± 0.4 | 9.7 ± 1.2 | 6.1 | 8.9 | > 100 | > 10 | IC50 (sAPPβ): 6.8 ± 0.3 µM
CN(C)CCCc1ccc(-c2nn(-c3cccc(CN(C)CCCN(C)C)c3)cc2CN(C)C)cc1 [Compound 34, N′-[[3-[4-(dimethylaminomethyl)-3-[4-[3-(dimethylamino)propyl]phenyl]-1H-pyrazol-1-yl]phenyl]methyl]-N,N,N′-trimethyl-propane-1,3-diamine] | 5.7 ± 0.5 | 8.3 ± 0.2 | 1.1 | 1.9 | > 100 | > 10 | IC50 (sAPPβ): 4.5 ± 0.7 µM
CN(C)CCCc1ccc(-c2nn(-c3cccc(CN(C)CCCN(C)C)c3)cc2CCCN(C)C)cc1 [Compound 35, N′-[[3-[4-[3-(dimethylamino)propyl]-3-[4-[3-(dimethylamino)propyl]phenyl]-1H-pyrazol-1-yl]phenyl]methyl]-N,N,N′-trimethyl-propane-1,3-diamine] | 12.4 ± 0.6 | 13.2 ± 0.2 | 5.1 | 5.4 | > 100 | – | –
Cc1cn(-c2cccc(CN(C)C)c2)nc1-c1ccc(CN(C)CCCN(C)C)cc1 [Compound 67, {[4-(1-{3-[(dimethylamino)methyl]phenyl}-4-methyl-1H-pyrazol-3-yl)phenyl]methyl}-[3-(dimethylamino)propyl]methylamine] | – | – | – | – | – | 1.4 | secretion of sAPPα (sAPPα): increasing the secretion of sAPPα; Aβ1-x peptides secretion (Aβ1-x peptides): reduce Aβ1-x peptides secretion; β-secretase cleavage of APP / β-secretase modulatory activity (β-secretase): repressing the β-secretase cleavage of APP
Cc1cn(-c2cccc(CN(C)CCCN(C)C)c2)nc1-c1ccc(CN(C)CCCN(C)C)cc1 [Compound 69, [3-(dimethylamino)propyl][(4-{1-[3-({[3-(dimethylamino)propyl](methyl)amino}methyl)phenyl]-4-methyl-1H-pyrazol-3-yl}phenyl)methyl]methylamine] | – | – | – | – | – | > 5 | –
Cc1cn(-c2cccc(CN3CCN(C)CC3)c2)nc1-c1cccc(CN(C)CCCN(C)C)c1 [Compound 71, N,N,N′-trimethyl-N′-[[3-[4-methyl-1-[3-[(4-methylpiperazin-1-yl)methyl]phenyl]pyrazol-3-yl]phenyl]methyl]propane-1,3-diamine] | – | – | – | – | – | 1.1 | secretion of sAPPα (sAPPα): increasing the secretion of sAPPα; Aβ1-x peptides secretion (Aβ1-x peptides): reduce Aβ1-x peptides secretion; β-secretase cleavage of APP / β-secretase modulatory activity (β-secretase): repressing the β-secretase cleavage of APP
